# Several values for one entry are separate records, joined by “and”; a condition that tells them apart may be missing. Equal values may be shown once.
# Biological target: T1, recombinant PP1α (Oryctolagus cuniculus, UniProt P62139)
# T1 construct: purchased New England Biolabs, Ipswich, MA
# Assay: Malachite green dephosphorylation of RVxF-containing hybrid pRb peptides by PP1α
# Format: biochemical
# Description: Here, we analyzed the effect of 1H4 on the binding of the Tat RVxF sequence to PP1 using hybrid PP1 substrates containing a substrate phosphopeptide linked to RVxF-containing sequences derived from Tat or NIPP1. As the substrate phosphopeptide, we used a retinoblastoma protein-derived HIPR(pS)[…] peptide (pRb) that is efficiently dephosphorylated by PP1 but not by the enzymatically-related PP2A [13]. The pRb peptide was linked to an extended RVxF-containing sequence derived from Tat ([…]) (pRb-Tat peptide) or the central domain of NIPP1 ([…]). To visualize the interaction between pRb-Tat and PP1 we built a computational model of the pRb-Tat peptide with PP1 complex (described in Materials and Methods). Based on this model, the pRb-Tat peptide is able to bind to the RVxF- accommodating groove of PP1 and, at the same time, to reach the active site of PP1 without any tension (Fig. 5A, green spheres; Fig. 5B, gray sticks). The pRb-Tat peptide was efficiently dephosphorylated by PP1 in vitro (Fig. 5C, V0 = 0.31 µM·min^-1). […] Addition of 1H4 at 3-fold molar excess (480 µM) over pRb-Tat (160 µM) inhibited pRb-Tat dephosphorylation and reduced the rate of dephosphorylation (Fig. 5C, V0 = 0.19 µM·min^−1) to the rate of pRb-Tat QACA dephosphorylation (Fig. 5C, V0 = 0.17 µM⋅min^−1). […] To further investigate the effect of 1H4 on the dephosphorylation of the pRb-Tat peptide, we analyzed the initial velocity versus pRb-Tat peptide substrate concentration plots. […] This was expected because the dephosphorylation site and the RVxF-containing sequence were fused into one hybrid substrate and 1H4 interferes with the binding of this substrate to PP1.
# Figure 5 1H4 compound competes with RVxF motif. A. Superimposition of pRb-Tat peptide on the complex of PP1 with Spinophilin. PP1 surface is colored after the atom types. The spinophilin peptide is shown as magenta ribbon and the pRb-Tat peptide as orange ribbon. The Val25 and Phe27 residues of pRb-Tat and the Ile449 and Phe 451 residues of Spinophilin are shown as sticks. The 2-(N-morpholino)-ethanesulfonic acid bound in the active site of PP1 is shown in green spheres. The phosphorylated Ser6 residue of pRb-Tat peptide is shown as sticks. B. Phosphorylated Ser 6 residue binds to the active site of PP1. Comparative superimposition of pRb-Tat peptide over the crystal structure of MES bound in the active site of PP1. Catalytic resides are shown as sticks. MES is shown as green sticks, and the phosphorylated Ser6 residue of pRb-Tat peptide is shown as orange sticks. The pRb-Tat peptide is shown as orange ribbon. C. 1H4 inhibits kinetics of pRb-Tat peptide dephosphorylation by PP1α. Recombinant PP1α was assayed with pRb-Tat (WT or QACA mutant, 120 µM) in the absence or presence of 1H4 as indicated. The reactions were stopped at indicated time points and the phosphate release was quantified by malachite green assay. Initial velocity was calculated by linear regression in Prism. D. 1H4 inhibits kinetics of pRb-cdNIPP dephosphorylation by PP1α. Recombinant PP1α was assayed with pRb-cdNIPP1 in the absence or presence of 1H4 as indicated. Mutant pRb cdNIPP1 pA-RATA was used as negative control. The reactions were stopped at indicated time points and the phosphate release was quantified by malachite green assay. Initial velocity was calculated by linear regression in Prism. […] Initial rates of pRb-Tat peptide dephosphorylation by PP1α were assayed at the indicated concentrations of the substrate in the absence or presence of 300 µM 1H4 or non-HIV-1 inhibitory 1G3. The amount of the released phosphate was quantified with malachite green.
# Malachite green dephosphorylation assays were carried out with the Ser/Thr phosphatase assay kit (Upstate, Lake Placid, NY) using recombinant PP1α (New England Biolabs, Ipswich, MA). […]
# T1 sequence (P62139 whole entry): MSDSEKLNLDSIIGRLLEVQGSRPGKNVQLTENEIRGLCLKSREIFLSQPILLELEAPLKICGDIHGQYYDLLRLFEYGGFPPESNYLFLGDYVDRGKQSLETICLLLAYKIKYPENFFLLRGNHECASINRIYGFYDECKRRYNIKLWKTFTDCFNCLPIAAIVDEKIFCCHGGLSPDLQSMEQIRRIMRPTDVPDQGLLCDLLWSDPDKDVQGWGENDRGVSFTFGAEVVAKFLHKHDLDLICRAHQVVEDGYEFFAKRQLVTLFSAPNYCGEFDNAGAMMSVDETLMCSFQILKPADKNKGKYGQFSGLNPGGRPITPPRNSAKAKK
smiles,measurement,setting,value
COCCNC(=O)COC(=O)c1c2c(nc3ccccc13)/C(=C/c1ccc(O)cc1)CCC2 [1H4],Effect on and mode of inhibition of pRb-Tat dephosphorylation by PP1α,"300 µM compound, Lineweaver-Burk plot",competitive
same,pRB-Tat VMAX,"300 µM compound, control 16.67, 25% of substrate assumed phosphorylated",18.20
same,V0 of pRb-cdNIPP1 dephosphorylation by PP1α in presence of compound,1H4 added,0.37 µM·min^-1 and 0.37 ± 0.01 µM·min^-1
same,V0 of pRb-Tat dephosphorylation by PP1α in presence of compound,1H4 at 3-fold molar excess (480 µM) over pRb-Tat (160 µM),0.19 µM·min^-1 and 0.19 ± 0.01 µM·min^-1
